From PubChem BioAssay (NCI)
“And” between values parts separate entries of the source, which are not always exact repeats. Identical values can stand only once.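 Exposure lasted 48 hours, with cells grown in 96-well plates and compounds tested at five concentrations. GI50 marks 50% less growth. TGI denotes the concentration required for complete inhibition of growth.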

Assays:
Experiment in all cases: inhibition of tumour cell growth, NCI panel, 48 h
EKVX NSCLC = test system: EKVX NSCLC
SK-MEL-2 melanoma = test system: SK-MEL-2 melanoma
MCF7 breast = test system: MCF7 breast
SF-539 CNS = test system: SF-539 CNS
SF-295 CNS = test system: SF-295 CNS
OVCAR-3 ovarian = test system: OVCAR-3 ovarian
HL-60(TB) leukemia = test system: HL-60(TB) leukemia
CCRF-CEM leukemia = test system: CCRF-CEM leukemia
MDA-MB-231 breast = test system: MDA-MB-231 breast
LOX IMVI melanoma = test system: LOX IMVI melanoma
MDA-MB-435 = test system: MDA-MB-435
SK-OV-3 ovarian = test system: SK-OV-3 ovarian
SW-620 colon = test system: SW-620 colon
A498 renal = test system: A498 renal

Structure (SMILES)	TGI (EKVX NSCLC)	TGI (SK-MEL-2 melanoma)	TGI (MCF7 breast)	TGI (SF-539 CNS) [µM]	TGI (SF-295 CNS)	TGI (OVCAR-3 ovarian)	TGI (HL-60(TB) leukemia) [µM]	TGI (CCRF-CEM leukemia)	TGI (MDA-MB-231 breast)	TGI (LOX IMVI melanoma)	TGI (MDA-MB-435)	TGI (SK-OV-3 ovarian)	TGI (SW-620 colon)	TGI (A498 renal) [µM]	GI50 (SK-MEL-2 melanoma)	GI50 (SF-295 CNS)
O=C(NC(Nc1ccc(F)c(Cl)c1)(C(F)(F)F)C(F)(F)F)C(C(F)(F)F)C(F)(F)F	> 100 µM	44.5 µM	> 100 µM	48.7	> 100 µM	> 100 µM	44.6	73.9 µM	78.9 µM	29.9 µM	> 100 µM	> 100 µM	> 100 µM	> 100		
C[N+]1(C)CN(c2ccccc2)C2(CCN(CCCC(=O)c3cccs3)CC2)C1=O	> 100 µM	> 100 µM	> 100 µM	> 100	> 100 µM	> 100 µM	> 100	> 100 µM	> 100 µM	> 100 µM	> 100 µM	> 100 µM	> 100 µM	> 100		
CSC(=NCCN=C(NS(=O)(=O)c1ccc(Cl)cc1)SC)NS(=O)(=O)c1ccc(Cl)cc1	> 100 µM	> 100 µM	> 100 µM	> 100	> 100 µM	> 100 µM	> 100	> 100 µM	> 100 µM	> 100 µM	> 100 µM	59.1 µM	> 100 µM	> 100		
NC(=O)N(O)c1cccc(Br)c1	> 100 µM	> 100 µM	> 100 µM	> 100	> 100 µM	> 100 µM	> 100	> 100 µM	> 100 µM	> 100 µM	> 100 µM	> 100 µM	> 100 µM	> 100		
CC(=O)OC[C@@]12C[C@H]3C(=O)C(C)(C)C[C@H]3[C@]1(C)[C@@H](OC(C)=O)[C@]1(O)[C@H]([C@@H](OC(=O)c3ccccc3)[C@@H](C)[C@H]1OC(C)=O)[C@H]2OC(C)=O	> 20 µM	> 20 µM	> 20 µM	> 20	> 20 µM	> 20 µM	> 20	> 20 µM	> 20 µM	> 20 µM	> 20 µM	> 20 µM	> 20 µM	> 20		
CCCCCCCSCC(O)COC(c1ccccc1)(c1ccccc1)c1ccccc1 (stereo not drawn)	> 100 µM	52.5 µM	> 100 µM	> 100	> 100 µM	> 100 µM	63.9	> 100 µM	> 100 µM	> 100 µM	> 100 µM	> 100 µM	> 100 µM	> 100		
O=C(C1OC1c1ccc([N+](=O)[O-])cc1)C12CC3CC(CC(C3)C1)C2 (stereo not drawn)	37.4 µM	39.1 µM	33.1 µM	28.9	30.8 µM	27 µM	16.1	7.66 µM	34.8 µM	4.19 µM	28.4 µM	49.6 µM	56 µM	35.7		
CC1(C)CC(=O)c2c(nc3ccc4ccccc4c3c2-c2ccc(NC(=O)CCCCC(=O)Nc3ccc(-c4c5c(nc6ccc7ccccc7c46)CC(C)(C)CC5=O)cc3)cc2)C1	> 100 µM	> 100 µM	> 100 µM	> 100	> 100 µM	> 100 µM	> 100	> 100 µM	> 100 µM	> 100 µM	> 100 µM	> 100 µM	> 100 µM	> 100		
CC/C(Cl)=N\OC(=O)Nc1ccc(C#N)cc1	26.3 µM	30 µM	29.6 µM	30.5	33 µM	32.7 µM	6.2	4.1 µM	29.1 µM	15.9 µM	29.4 µM	22.3 µM	11.7 µM	30.3		
CN1C[C@@H]2CCCN2P1Oc1cccc2cccnc12 (stereo partly drawn)	90.6 µM	> 100 µM	65.4 µM	> 100	> 100 µM	90.2 µM	72.9	19.3 µM	> 100 µM	> 100 µM	> 100 µM	> 100 µM	> 100 µM	> 100		
Cc1nc2c(-c3ccccc3)[nH]c(C)c2c(=O)o1	> 100 µM	> 100 µM	37.7 µM	> 100	> 100 µM		> 100	> 100 µM	> 100 µM	> 100 µM	> 100 µM	> 100 µM	> 100 µM	> 100		
Clc1nc2c(-c3cccs3)ncnc2n1Cc1ccccc1	55.4 µM	> 100 µM	> 100 µM	> 100	> 100 µM	49.8 µM	> 70.3	> 100 µM	> 81.5 µM	> 100 µM	> 100 µM	> 95.4 µM	> 70.5 µM	55.6		
CSCCCCCCCCCCOc1ccc(C=C2C(=C(C#N)C#N)c3ccccc3C2=C(C#N)C#N)cc1	34.5 µM	36.7 µM	32.3 µM	37.3	34 µM	30 µM	4.34	12.2 µM	35.7 µM	61.7 µM	32.9 µM	32.1 µM	37.8 µM	33.1		
CCOC(=O)c1nc2cc(C(F)(F)F)ccc2nc1Nc1ccc(Cl)c(Cl)c1	> 100 µM	> 100 µM	> 100 µM	> 100	> 100 µM	> 100 µM	> 100	> 100 µM	> 100 µM	> 100 µM	> 100 µM	> 100 µM	> 100 µM	> 100		
NC(CCCCNc1ccn(C2OC(CO)C(O)C2O)c(=O)n1)C(=O)O (stereo not drawn)	> 100 µM	> 100 µM	> 100 µM	> 100	> 100 µM	> 100 µM	> 100	> 100 µM	> 100 µM	> 100 µM	> 100 µM		> 100 µM	> 100		
CO[C@H]1O[C@@H]2CO[C@@H](c3ccccc3)O[C@H]2C[C@]12CCC/C=C\CO2	25.8 µM	41.4 µM	35.7 µM	29.1	> 75 µM	24.6 µM	54.7	36.5 µM	39.3 µM	22.9 µM	26.5 µM	> 75 µM	61.1 µM	37.2		
N#Cc1c(NC(=S)NCc2ccccc2)sc2c1CCN(N1CCc3c(sc(NC(=S)NCc4ccccc4)c3C#N)C1)C2	> 100 µM	> 100 µM	> 100 µM	> 100	> 100 µM	> 100 µM	> 100	> 100 µM	> 100 µM	> 100 µM	> 100 µM	> 100 µM	> 100 µM	> 100		

Structure (SMILES)	TGI (EKVX NSCLC)	TGI (SK-MEL-2 melanoma)	TGI (MCF7 breast)	TGI (SF-539 CNS) [µM]	TGI (SF-295 CNS)	TGI (OVCAR-3 ovarian)	TGI (HL-60(TB) leukemia) [µM]	TGI (CCRF-CEM leukemia)	TGI (MDA-MB-231 breast)	TGI (LOX IMVI melanoma)	TGI (MDA-MB-435)	TGI (SK-OV-3 ovarian)	TGI (SW-620 colon)	TGI (A498 renal) [µM]	GI50 (SK-MEL-2 melanoma)	GI50 (SF-295 CNS)
Nc1cccc(OCc2nc(N)nc(N)c2-c2ccc(Cl)cc2)c1	> 100 µM	> 100 µM	> 100 µM		> 100 µM	> 100 µM	77.3	29.2 µM	> 100 µM	> 100 µM	> 100 µM	> 100 µM	> 100 µM	> 100		
O=C1c2ccccc2C(=O)N1c1ccc(OCCN2CCCCC2)cc1	> 100 µM	> 100 µM	> 100 µM	> 100	> 100 µM	> 100 µM	> 100	> 100 µM	> 100 µM	> 100 µM	> 100 µM	> 100 µM	> 100 µM	> 100		
O/N=C\c1cc(O)c(O)c(/C=N/O)c1	> 100 µM	> 100 µM	> 100 µM	> 100	> 100 µM	> 100 µM	> 100	> 100 µM	> 100 µM	> 100 µM	> 100 µM	> 100 µM	> 100 µM	> 100		
Cc1cccc2c1C(=O)C(C1OC(=O)c3ccccc31)C2 (stereo not drawn)	> 100 µM	> 100 µM	> 100 µM	> 100	> 100 µM	> 100 µM	> 100	> 100 µM	> 100 µM	> 100 µM	> 100 µM	> 100 µM	> 100 µM	> 100		
O=[N+]([O-])C1(C2([N+](=O)[O-])CCCC2)CCCC1	> 100 µM	> 100 µM	> 100 µM	> 100		> 100 µM	> 100	> 100 µM	> 100 µM	> 100 µM	> 100 µM	> 100 µM	> 100 µM	> 100		
O=C(O)CCC1(c2ccccc2)NC(=O)NC1=O (stereo not drawn)	> 100 µM	> 100 µM	> 100 µM	> 100	> 100 µM	> 100 µM	> 100	> 100 µM	> 100 µM	> 100 µM	> 100 µM	> 100 µM	> 100 µM	> 100		
COC(=O)CCCCC/C(=C\C(=O)C(Cl)(Cl)Cl)OC	56.8 µM	50 µM	58.5 µM	44.4	> 100 µM	70.4 µM	47.6	> 100 µM	> 100 µM	44.9 µM	64.7 µM	> 100 µM	84.3 µM	> 100		
N#Cc1c(-c2ccc(Cl)cc2)c(C#N)c(=O)n(NS(=O)(=O)c2ccccc2)c1-c1ccccc1		> 25 µM	> 25 µM	> 25	> 25 µM		> 25	> 25 µM	> 25 µM	> 25 µM	> 25 µM	> 25 µM	> 25 µM	> 25		
CC(C)[Si](OC1=CCCCCC12C(=O)N(C)c1ccccc12)(C(C)C)C(C)C (stereo not drawn)	38.6 µM	37.6 µM	34 µM	41.7	28.6 µM	31.8 µM	38.9	36.5 µM	54.8 µM	35.7 µM	67.3 µM	46.6 µM	35.6 µM	42.8		
Cc1ccc(C2=Nc3c(N)nc(N)nc3NC(c3ccccc3)C2)cc1 (stereo not drawn)	27.2 µM and 28.2 µM	22 µM and 17.9 µM	22.5 µM and 21.5 µM	25.3	17.9 µM and 23.8 µM	24.8 µM and 24.9 µM	20.3	48.5 µM and 96.9 µM	19.7 µM and 28.9 µM	23 µM and 28 µM	7.25 µM and 6.01 µM	27.1 µM and 27.6 µM	15.2 µM and 16.2 µM	23.6	9.71 µM and 4.19 µM	4.9 µM and 10.5 µM
COc1ccc(NC2=NCCO2)c2ccccc12	> 10 µM	> 10 µM	> 10 µM	> 10	> 10 µM	> 10 µM	> 10	> 10 µM	> 10 µM	> 10 µM	> 10 µM	> 10 µM	> 10 µM	> 10		
O=C(NCc1ccccc1)c1cnc(Cl)cn1	> 100 µM	> 100 µM	> 100 µM	> 100	> 100 µM	> 100 µM	> 100	62.6 µM	> 100 µM	> 100 µM	> 100 µM	> 100 µM	> 100 µM	> 100		
C#CCOC(=O)c1ccccc1OC(C)=O	> 100 µM	> 100 µM	> 100 µM	> 100	> 100 µM		> 100	> 100 µM	> 100 µM	> 100 µM	> 100 µM	> 100 µM	> 100 µM	> 100		
O=C(/C=C/c1ccc(Cl)c(Cl)c1)Oc1ccc(/C=C2\CCCCC2=O)cc1	> 100 µM	> 100 µM	> 100 µM	> 100	> 100 µM	> 100 µM	> 100	> 100 µM	> 100 µM	> 100 µM	> 100 µM		> 100 µM	> 100		
Cc1ccc(S(=O)(=O)N/N=C2\C=C[C@]3(CC2)C(=O)N(C)c2ccccc23)cc1	> 100 µM	> 100 µM	> 100 µM		> 100 µM	> 100 µM	> 100	> 100 µM	> 100 µM	> 100 µM	> 100 µM	> 100 µM	> 100 µM	> 100		
COc1cc2c(cc1OC)CCN=C2		> 100 µM	> 100 µM		> 100 µM	> 100 µM	> 100	> 100 µM	> 100 µM	> 100 µM	> 100 µM	> 100 µM	> 100 µM	> 100		
